Experiment [1] deals with MDA-MB-231. The experiment in a line: Induction of apoptosis in human MDA-MB-231 cells at IC50 after 48 hrs by Giemsa staining-based light microscopy (reference value: 7%). The format is functional.
Experiment [2] has as its system MCF7. As to the kind of experiment: Antiproliferative activity against human MCF7 cells after 48 hrs by MTT assay. The class given is functional, cell-based. The settings on record: MCF7, 48 h. Background: Tetrazolium dyes change colour on reduction, which living cells bring about.
Experiment [3] is described as follows: Antiproliferative activity against human PC3 cells after 48 hrs by MTT assay. The class given is functional, cell-based. The settings on record: PC-3, 48 h.
The subject of experiment [4] is HeLa. As to the kind of experiment: Antiproliferative activity against human HeLa cells after 48 hrs by MTT assay. The format is functional, cell-based.
Experiment [5] deals with MRC5. As to the kind of experiment: Antiproliferative activity against human MRC5 cells after 48 hrs by MTT assay. The class given is cell-based. As to conditions: MRC5, 48 h.
For experiment [6], the system named is MDA-MB-231. The experiment in a line: Antiproliferative activity against human MDA-MB-231 cells after 48 hrs by MTT assay. The class given is functional, cell-based. The settings on record: MDA-MB-231, 48 h.
The subject of experiment [7] is MDA-MB-231. The experiment in a line: Antiproliferative activity against human MDA-MB-231 cells at 10 nM after 48 hrs by MTT assay. The class given is functional. As to conditions: MDA-MB-231, 48 h.
In experiment [8] the test system is MCF7. The experiment in a line: Antiproliferative activity against human MCF7 cells at 10 nM after 48 hrs by MTT assay. The format is functional. The settings on record: MCF7, 48 h.

Structures are written as SMILES.

As usually defined, the IC50 is the concentration needed to halve the response being measured. The term inhibition denotes the share of the control response that was lost under treatment. A higher inhibition goes with a response far below the control.

Turning to `COc1cccc2c1C(=O)c1c(O)c3c(c(O)c1C2=O)C[C@@](O)(C(=O)CO)C[C@@H]3O[C@H]1C[C@H](N)[C@H](O)[C@H](C)O1` [DOXORUBICIN], the Activity in experiment [1] turned out to be 11%. In addition, the 50% inhibitory concentration (IC50) in experiment [2] worked out at 0.75 µM; in experiment [3] it was 95.6 µM.

In the case of `C[C@]1(CC#N)CC[C@H]2[C@@H](CCC3=CC(=O)CC[C@@]32C)[C@@H]1CC#N`, the IC50 in experiment [4] was 5.73 µM; in experiment [5] it was greater than 100 µM; in experiment [2], 15 µM; in experiment [6] it was 15.5 µM; in experiment [3], 8.27 µM. Moreover, in experiment [1], the Activity amounted to 15.9%.

On to `C[C@]1(CC#N)CC[C@@H]2c3ccc(O)cc3CC[C@H]2[C@@H]1CC#N`, for which the IC50 in experiment [4] is 7.32 µM; in experiment [5], greater than 100 µM; in experiment [2], 17 µM; in experiment [6], 3.96 µM; in experiment [3], 11.2 µM. The same compound registered an Activity in experiment [1] of 11.1%.

Take `C[C@]1(CC#N)CC[C@H]2[C@@H](CC=C3C[C@@H](O)CC[C@@]32C)[C@@H]1CC#N`: the IC50 is 2.15 µM in experiment [4]; greater than 100 µM in experiment [5]; 30 µM in experiment [2]; 34.8 µM in experiment [6]; 19.1 µM in experiment [3]. The compound also had an Activity in experiment [1] of 18%.

On to `C[C@]1(CC#N)CC[C@H]2[C@@H](CCC3=C(O)C(=O)CC[C@@]32C)[C@@H]1CC#N`, for which the IC50 in experiment [4] is 14.7 µM; in experiment [5], greater than 100 µM; in experiment [2], 57 µM; in experiment [6] it was 39.6 µM; in experiment [3], 8.69 µM. Further, the Activity in experiment [1] is recorded as 11%.

As for `C[C@]1(CC#N)CC[C@H]2[C@@H](CCC3=CC(=O)C=C[C@@]32C)[C@@H]1CC#N`, the IC50 in experiment [4] was 12.5 µM; in experiment [5], greater than 100 µM; in experiment [2], 0.52 µM; in experiment [6], 0.11 µM; in experiment [3] it was 70.9 µM. The compound also returned an Activity in experiment [1] of 14.1%. For the same compound, the values for the inhibition at 0.01 µM in experiment [7] and in experiment [8] were 69% and 61%, respectively.

`C[C@]12CCC(=O)C(O)=C1CC[C@@H]1[C@@H]2CC[C@]2(C)C(=O)CC[C@@H]12` [FORMESTANE]: the IC50 in experiment [4] is 1.9 µM; in experiment [5] it was greater than 100 µM; in experiment [2] it was greater than 100 µM; in experiment [6] it was 53.3 µM; in experiment [3], 45.6 µM. This compound also gave an Activity in experiment [1] of 11%.

The record behind these values is ChEMBL document CHEMBL3399944, “Synthesis and anticancer cell potential of steroidal 16,17-seco-16,17a-dinitriles: identification of a selective inhibitor of hormone-independent breast cancer cells” (Bioorg Med Chem, 2015).
